According to patent US9597407B2, “Targeted antimicrobial moieties” (C3 Jian, Inc., priority 2009, dated 2017):

Tested on: microorganisms
Assay: Morphology, biofilm and growth disruption by peptides (Table 5)
Format: cell-based
Design: key: A: Peptide aggregates; B: Less hyphal formation; Clumps; Diffuse clumps and small polyps; F: Diffuse growth; H: Thin; I: Growth inhibition; Microcolony formation; Rippled; Small polyps; Thick; W: Halo formation on top, microlonies on bottom
Source text: In certain embodiments peptides that induce alterations in phenotype or other biological activities can also be used as antimicrobial effector moieties.

KFQGEFTNIGQSYIVSASHMSTSLNTGK [PF-583]
Organism, effect (morphology, biofilm and growth disruption) (MRSA): MRSA (I)
Organism, effect (morphology, biofilm and growth disruption) (S. epidermidis): S. epidermidis (I)
Organism, effect (morphology, biofilm and growth disruption) (S. mutans): S. mutans (F)
Organism, effect (morphology, biofilm and growth disruption) (S. pneumoniae): S. pneumoniae (D)

KNKKQTDILEKVKEILDKKKKTKSVGQKLY [PF-538]
Organism, effect (morphology, biofilm and growth disruption) (S. pneumoniae): S. pneumoniae (H)

DLLKSLLGQDGAKNDEIIEFIKIIMEK [PF-591]
Organism, effect (morphology, biofilm and growth disruption) (C. jejuni): C. jejuni (C)
Organism, effect (morphology, biofilm and growth disruption) (E. faecalis): E. faecalis (A)
Organism, effect (morphology, biofilm and growth disruption) (S. pneumoniae): S. pneumoniae (R)

PF-561 (ESLEADVQAELDTEAAKYPALPASF; Peptide with targeting and/or antimicrobial activity)
Organism, effect (morphology, biofilm and growth disruption) (B. subtilis): B. subtilis (D)
Organism, effect (morphology, biofilm and growth disruption) (MRSA): MRSA (M)

PF-293 (YDPLK; Peptide with targeting and/or antimicrobial activity)
Organism, effect (S. epidermidis): S. epidermidis (C)

PF-485 (KNSMSRSIALID; Peptide with targeting and/or antimicrobial activity)
Organism, effect (morphology, biofilm and growth disruption) (S. pneumoniae): S. pneumoniae (A)

PF-605 (HYRWNTQWWKY; Peptide with targeting and/or antimicrobial activity)
Organism, effect (morphology, biofilm and growth disruption) (C. albicans): C. albicans (B)
Organism, effect (morphology, biofilm and growth disruption) (C. jejuni): C. jejuni (R)
Organism, effect (morphology, biofilm and growth disruption) (E. coli): E. coli (C)
Organism, effect (morphology, biofilm and growth disruption) (E. faecalis): E. faecalis (R)
Organism, effect (morphology, biofilm and growth disruption) (MRSA): MRSA (C)
Organism, effect (morphology, biofilm and growth disruption) (P. aeruginosa): P. aeruginosa (A)
Organism, effect (morphology, biofilm and growth disruption) (S. epidermidis): S. epidermidis (R)
Organism, effect (morphology, biofilm and growth disruption) (S. pneumoniae): S. pneumoniae (D)

PF-C089 (MPKRHYYKLEAKALQFGLPFAYSPIQLLK; Peptide with targeting and/or antimicrobial activity)
Organism, effect (morphology, biofilm and growth disruption) (P. gingivalis): P. gingivalis (R)

PF-618 (KLNTLNKKDNPSLNDQDKNAVLNLLALAK; Peptide with targeting and/or antimicrobial activity)
Organism, effect (morphology, biofilm and growth disruption) (E. faecalis): E. faecalis (H)
Organism, effect (morphology, biofilm and growth disruption) (S. pneumoniae): S. pneumoniae (I)

RRGCTERLRRMARRNAWDLYAEHFY [PF-148]
Organism, effect (B. subtilis): B. subtilis (I)
Organism, effect (C. albicans): C. albicans (B)
Organism, effect (C. jeikeium): C. jeikeium (H)
Organism, effect (C. jejuni): C. jejuni (H)
Organism, effect (M. luteus): M. luteus (A)
Organism, effect (MRSA): MRSA (C)
Organism, effect (S. epidermidis): S. epidermidis (D)
Organism, effect (S. pneumoniae): S. pneumoniae (R)

PF-581 (WTARARR; Peptide with targeting and/or antimicrobial activity)
Organism, effect (morphology, biofilm and growth disruption) (C. jejuni): C. jejuni (A)
Organism, effect (morphology, biofilm and growth disruption) (E. faecalis): E. faecalis (A)
Organism, effect (morphology, biofilm and growth disruption) (MRSA): MRSA (A)
Organism, effect (morphology, biofilm and growth disruption) (S. pneumoniae): S. pneumoniae (A)

PF-418 (FFLVHFYIRKRKGKVSIFLNYF; Peptide with targeting and/or antimicrobial activity)
Organism, effect (C. jejuni): C. jejuni (D)
Organism, effect (E. coli): E. coli (C)
Organism, effect (E. faecalis): E. faecalis (D)
Organism, effect (MRSA): MRSA (D)
Organism, effect (S. epidermidis): S. epidermidis (M)
Organism, effect (S. pneumoniae): S. pneumoniae (D)

PF-250 (SEDIFGRLANEKANGLEELRKIRLKQ; Peptide with targeting and/or antimicrobial activity)
Organism, effect (M. luteus): M. luteus (T)

GIVLIGLKLIPLLANVLR [PF-322]
Organism, effect (B. subtilis): B. subtilis (H)
Organism, effect (S. epidermidis): S. epidermidis (C)

PF-310 (GVALIGTILVPLLSGLFG; Peptide with targeting and/or antimicrobial activity)
Organism, effect (S. epidermidis): S. epidermidis (C)

PF-342 (AFSGVYKTLIVYTRRK; Peptide with targeting and/or antimicrobial activity)
Organism, effect (B. subtilis): B. subtilis (C)
Organism, effect (S. epidermidis): S. epidermidis (C)

PF-455 (MARNDDDIKKIKGTLGQSPEVYGERKLPYT; Peptide with targeting and/or antimicrobial activity)
Organism, effect (morphology, biofilm and growth disruption) (S. pneumoniae): S. pneumoniae (A)

PF-407 (KPKNKKEKTVISYEKLLSMY; Peptide with targeting and/or antimicrobial activity)
Organism, effect (E. faecalis): E. faecalis (R)
Organism, effect (MRSA): MRSA (C)
Organism, effect (S. epidermidis): S. epidermidis (M)
Organism, effect (S. pneumoniae): S. pneumoniae (R)

PF-290 (MVHDMTNGTLIIVKH; Peptide with targeting and/or antimicrobial activity)
Organism, effect (S. epidermidis): S. epidermidis (C)

PF-541 (RRNLNSPNIKTRKRALKIIKQHQRSK; Peptide with targeting and/or antimicrobial activity)
Organism, effect (morphology, biofilm and growth disruption) (E. coli): E. coli (H)
Organism, effect (morphology, biofilm and growth disruption) (S. pneumoniae): S. pneumoniae (H)

PF-076 (LYQYELLSKEEYLKCTLIINQRRNEQK; Peptide with targeting and/or antimicrobial activity)
Organism, effect (C. jeikeium): C. jeikeium (A)
Organism, effect (M. luteus): M. luteus (A)
Organism, effect (MRSA): MRSA (R)
Organism, effect (S. epidermidis): S. epidermidis (S)

EILNNNQVIKELTMKYKTQFESNLGGWTARARR [PF-580]
Organism, effect (morphology, biofilm and growth disruption) (M. luteus): M. luteus (C)
Organism, effect (morphology, biofilm and growth disruption) (MRSA): MRSA (M)
Organism, effect (morphology, biofilm and growth disruption) (S. epidermidis): S. epidermidis (M)
Organism, effect (morphology, biofilm and growth disruption) (S. pneumoniae): S. pneumoniae (C)

PF-670 (chain 1 TVIVAPMHSGV; chain 2 TVIVAPMHSGV; Peptide with targeting and/or antimicrobial activity)
Organism, effect (morphology, biofilm and growth disruption) (B. subtilis): B. subtilis (H)
Organism, effect (morphology, biofilm and growth disruption) (S. pneumoniae): S. pneumoniae (H)

PF-592 (IMKNYKYFKLFIVKYALF; Peptide with targeting and/or antimicrobial activity)
Organism, effect (morphology, biofilm and growth disruption) (C. jejuni): C. jejuni (S)
Organism, effect (morphology, biofilm and growth disruption) (E. coli): E. coli (C)
Organism, effect (morphology, biofilm and growth disruption) (E. faecalis): E. faecalis (D)
Organism, effect (morphology, biofilm and growth disruption) (MRSA): MRSA (D)
Organism, effect (morphology, biofilm and growth disruption) (S. epidermidis): S. epidermidis (M)
Organism, effect (morphology, biofilm and growth disruption) (S. pneumoniae): S. pneumoniae (D)

PF-431 (VAYAAICWW; Peptide with targeting and/or antimicrobial activity)
Organism, effect (morphology, biofilm and growth disruption) (C. jejuni): C. jejuni (R)
Organism, effect (morphology, biofilm and growth disruption) (E. faecalis): E. faecalis (R)
Organism, effect (morphology, biofilm and growth disruption) (MRSA): MRSA (C)
Organism, effect (morphology, biofilm and growth disruption) (S. epidermidis): S. epidermidis (M)
Organism, effect (morphology, biofilm and growth disruption) (S. pneumoniae): S. pneumoniae (R)

PF-399 (FPIISALLGAIICIAIYSFIVNRKA; Peptide with targeting and/or antimicrobial activity)
Organism, effect (E. coli): E. coli (C)
Organism, effect (E. faecalis): E. faecalis (C)
Organism, effect (MRSA): MRSA (C)
Organism, effect (S. epidermidis): S. epidermidis (C)

PF-565 (RAEAEAQRQAEADAKRKAEEAARL; Peptide with targeting and/or antimicrobial activity)
Organism, effect (morphology, biofilm and growth disruption) (B. subtilis): B. subtilis (D)
Organism, effect (morphology, biofilm and growth disruption) (MRSA): MRSA (C)

PF-019 (NDTNK; Peptide with targeting and/or antimicrobial activity)
Organism, effect (MRSA): MRSA (M)

MRFGSLALVAYDSAIKHSWPRPSSVRRLRM [PF-672]
Organism, effect (morphology, biofilm and growth disruption) (B. subtilis): B. subtilis (I)
Organism, effect (morphology, biofilm and growth disruption) (C. albicans): C. albicans (I)
Organism, effect (morphology, biofilm and growth disruption) (C. jeikeium): C. jeikeium (R)
Organism, effect (morphology, biofilm and growth disruption) (E. faecalis): E. faecalis (I)
Organism, effect (morphology, biofilm and growth disruption) (MRSA): MRSA (I)
Organism, effect (morphology, biofilm and growth disruption) (S. epidermidis): S. epidermidis (I)
Organism, effect (morphology, biofilm and growth disruption) (S. pneumoniae): S. pneumoniae (I)

PF-C293 (IIIILPKIYLVCKTV; Peptide with targeting and/or antimicrobial activity)
Organism, effect (morphology, biofilm and growth disruption) (F. nucleatum): F. nucleatum (T)
Organism, effect (morphology, biofilm and growth disruption) (P. gingivalis): P. gingivalis (R)
Organism, effect (morphology, biofilm and growth disruption) (S. mutans): S. mutans (F)

FQKPFTGEEVEDFQDDDEIPTII [PF-437]
Organism, effect (morphology, biofilm and growth disruption) (S. pneumoniae): S. pneumoniae (I)

PF-303 (EYPWSWISEPWPWDKSFYK; Peptide with targeting and/or antimicrobial activity)
Organism, effect (B. subtilis): B. subtilis (C)

PF-449 (MPTTKSKQKGWTNTKKASNTQ; Peptide with targeting and/or antimicrobial activity)
Organism, effect (morphology, biofilm and growth disruption) (S. pneumoniae): S. pneumoniae (H)

PF-145 (GIVLTGRAGLVSGACSMALGVGLG; Peptide with targeting and/or antimicrobial activity)
Organism, effect (B. subtilis): B. subtilis (C)
Organism, effect (C. jeikeium): C. jeikeium (R)
Organism, effect (C. jejuni): C. jejuni (R)
Organism, effect (M. luteus): M. luteus (A)
Organism, effect (MRSA): MRSA (M)
Organism, effect (S. epidermidis): S. epidermidis (D)
Organism, effect (S. pneumoniae): S. pneumoniae (R)

PF-415 (MIDVTIGQKSKTGAFNASYSICFSGENFSF; Peptide with targeting and/or antimicrobial activity)
Organism, effect (S. pneumoniae): S. pneumoniae (D)

PF-296 (GAFGMPSIKTNTICGEKGKFISACDAWLSNLK; Peptide with targeting and/or antimicrobial activity)
Organism, effect (B. subtilis): B. subtilis (C)
Organism, effect (S. epidermidis): S. epidermidis (C)

PF-196 (TTARYIRRQCHTSITPLSQG; Peptide with targeting and/or antimicrobial activity)
Organism, effect (C. jeikeium): C. jeikeium (R)
Organism, effect (S. epidermidis): S. epidermidis (C)

PF-220 (VDPADDGTRHIRPEDGDPIEIDE; Peptide with targeting and/or antimicrobial activity)
Organism, effect (S. pneumoniae): S. pneumoniae (H)
